Results as given in patent US20260193180A1, “AUTOPHAGY INDUCING COMPOUNDS AND USES THEREOF” (SAMSARA THERAPEUTICS INC., priority 2022, published 2026).
Structures can show the parent of a compound that is named as a salt.

The compounds below were run on U2OS cell line stabling expressing RFP-eGFP-hLC3b (assay: Tandem reporter assay (autophagic flux), RFP-only puncta (autolysosomes)). Conditions: Homo sapiens, 0.5 μM, average of two runs, read-out: Activity (Autolysosome % DMSO activity).
Format: cell-based
Method: Selected compounds of this invention were also assessed for their ability to stimulate autophagy using a U2OS cell line stabling expressing RFP-eGFP-hLC3b (a tandem reporter cell line). This assay is further described in WO 2023/089074.
LC3b is a protein found in the membrane of autophagosomes which has been used to generate genetic reporters of autophagy in cells. In these systems a tandem fusion of LC3b is engineered with two fluorescent proteins of different wavelengths: one which is acid sensitive (for example eGFP, which fluoresces green) and the other which is acid insensitive (for example RFP, which fluoresces red). Cells expressing RFP-eGFP-hLC3b can be examined using fluorescent microscopy: the autophagosomes present will fluoresce in both channels (either yellow in an overlay of both channels or puncta that are present in both the individual red and green channels) but the autolysosomes present will fluoresce in the RFP (red) channel only. Using a fluorescent microscope, the number of autophagosomes and autolysosomes can be counted, allowing for the monitoring of both the induction of autophagy (total puncta count) and the rate of autophagic flux (ratio of red-only to red-and-green puncta). The influence of small molecules on autophagy induction and flux can be assessed using this system by comparison to a non-treated control.
Representative Procedure: Human osteosarcoma U20S cells stably expressing RFP-eGFP-hLC3b were seeded (10,000 cells/well) into a 96-well glass-bottom plate (Cell Carrier Ultra, Perkin Elmer) in DMEM Glutamax media (Gibco) supplemented with 10% Fetal Bovine Serum (FBS) and antibiotics (100 μg/ml penicillin, 100 μg/ml streptomycin, Invitrogen), then incubated overnight in a humified atmosphere at 37° C. and 5% CO2. The cells were then treated with the compounds of interest, dissolved in DMSO, in a duplicated 5- or 10-point dose-response. 8 wells were treated with an equivalent volume of DMSO, 4 with 0.3 μM torin-1 as a positive control (MCE) and 4 wells with 0.4 μM torin-1 plus 0.2 μM bafilomycin (MCE) as a control for flux inhibition. The cells were returned to the incubator and the treatment continued for 24 hours. After treatment, the media was aspirated off and the cells fixed with a solution of 4% formaldehyde+1% glutaraldehyde (Sigma) in dPBS (plus magnesium and calcium, Gibco). Fixation was allowed to proceed for 15 minutes at room temperature then the fixative solution discarded and replaced with PBS (Gibco) plus Hoescht 33342 (1 μg/ml, Sigma). After 30 minutes the plates were imaged on an Opera Phenix confocal microscope (Perkin-Elmer) using a 40× water objective, collecting using DAPI, mCherry and GFP channels. Cells were detected based upon the staining of their nuclei with DAPI using the Harmony image analysis software (Perkin-Elmer) and the number of autophagosomes (GFP and RFP puncta) and autolysosomes (RFP only puncta) per cell were counted using the spot picking function within the software.
`COCCOc1c(Cl)cc(CCN2CCC[C@H](N)C2)cc1Cl` [Compound 72, (S)-1-(3,5-dichloro-4-(2-methoxyethoxy)phenethyl)piperidin-3-amine hydrochloride] gave an activity at 0.5 µM of 150 to 200%. Compound `COCCOc1c(Cl)cc(CCN2CCC[C@@H](N)C2)cc1Cl` [Compound 76, (R)-1-(3,5-dichloro-4-(2-methoxyethoxy)phenethyl)piperidin-3-amine hydrochloride] has an activity at 0.5 µM of 150 to 200%.

Same assay, conditions: Homo sapiens, 0.75 μM, one run, read-out: Activity (Autolysosome % DMSO activity)
In the case of `CCOc1c(Cl)cc(CN2CC[C@@H](CN)C2)cc1Cl` [Compound 70, (S)-(1-(3,5-dichloro-4-ethoxybenzyl)pyrrolidin-3-yl)methanamine hydrochloride], the activity at 0.75 µM is reported as 150 to 200%.

Same assay, conditions: Homo sapiens, 0.833 μM, average of two runs, read-out: Activity (Autolysosome % DMSO activity)
Work on `CCOc1ccc(CCN2CCC(N)CC2)cc1Cl` [Compound 71, 1-(3-chloro-4-ethoxyphenethyl)piperidin-4-amine hydrochloride] yielded an activity at 0.833 µM of 150 to 200%.

Same assay, conditions: Homo sapiens, 1.25 μM, average of two runs, read-out: Activity (Autolysosome % DMSO activity)
Work on `N[C@@H]1CCN(Cc2cc(Cl)c(OCC3CC3)c(Cl)c2)C1` [Compound 73, (R)-1-(3,5-dichloro-4-(cyclopropylmethoxy)benzyl)pyrrolidin-3-amine hydrochloride] yielded an activity at 1.25 µM of 250 to 300%. Work on `N[C@H]1CCCN(CCc2cc(Cl)c(OCC3CC3)c(Cl)c2)C1` [Compound 74, (S)-1-(3,5-dichloro-4-(cyclopropylmethoxy)phenethyl)piperidin-3-amine hydrochloride] yielded an activity at 1.25 µM of over 300%. Work on `CCOc1ccc(CN2CCC(N)CC2)cc1Cl` [Compound 75, 1-(3-chloro-4-ethoxybenzyl)piperidin-4-amine hydrochloride] yielded an activity at 1.25 µM of 200 to 250%. Compound `N[C@H]1CCN(Cc2cc(Cl)c(OCC3CC3)c(Cl)c2)C1` [Compound 77, (S)-1-(3,5-dichloro-4-(cyclopropylmethoxy)benzyl)pyrrolidin-3-amine hydrochloride] has an activity at 1.25 µM of 250 to 300%. `N[C@@H]1CCCN(CCc2cc(Cl)c(OCC3CC3)c(Cl)c2)C1` [Compound 78, (R)-1-(3,5-dichloro-4-(cyclopropylmethoxy)phenethyl)piperidin-3-amine hydrochloride] showed an activity at 1.25 µM of 200 to 250%. Compound `N[C@H]1CCCN(CCc2ccc(OCC3CC3)c(Cl)c2)C1` [Compound 79, (S)-1-(3-chloro-4-(cyclopropylmethoxy)phenethyl)piperidin-3-amine formate salt] has an activity at 1.25 µM of 250 to 300%. `N[C@@H]1CCCN(CCc2ccc(OCC3CC3)c(Cl)c2)C1` [Compound 80, (R)-1-(3-chloro-4-(cyclopropylmethoxy)phenethyl)piperidin-3-amine formate salt] gave an activity at 1.25 µM of 250 to 300%. Work on `NC1CCN(Cc2ccc(OCC3CC3)c(Cl)c2)CC1` [Compound 81, 1-(3-chloro-4-(cyclopropylmethoxy)benzyl)piperidin-4-amine hydrochloride] yielded an activity at 1.25 µM of 150 to 200%. Work on `CCOc1ccc(C#N)cc1CCN1CCC[C@H](N)C1` [Compound 83, (S)-3-(2-(3-aminopiperidin-1-yl)ethyl)-4-ethoxybenzonitrile hydrochloride] yielded an activity at 1.25 µM of 200 to 250%. Compound `CCOc1ccc(C#N)cc1CCN1CCC[C@@H](N)C1` [Compound 84, (R)-3-(2-(3-aminopiperidin-1-yl)ethyl)-4-ethoxy benzonitrile hydrochloride] has an activity at 1.25 µM of 200 to 250%. With `CCOc1ccc(C#N)cc1CCN1CC[C@H](N)C1` [Compound 86, (S)-3-(2-(3-aminopyrrolidin-1-yl)ethyl)-4-ethoxy benzonitrile hydrochloride] the activity at 1.25 µM was 150 to 200%. With `CCOc1ccc(C#N)cc1CCN1CC[C@@H](N)C1` [Compound 87, 3-{2-[(R)-3-amino-1-pyrrolidinyl]ethyl}-4-ethoxybenzonitrile hydrochloride] the activity at 1.25 µM was 150 to 200%.

Same assay, conditions: Homo sapiens, 1.25 μM, one run, read-out: Activity (Autolysosome % DMSO activity)
`CCOc1c(Cl)cc(CN2CC[C@H](CN)C2)cc1C#N` [Compound 82, (R)-5-((3-(aminomethyl)pyrrolidin-1-yl)methyl)-3-chloro-2-ethoxybenzonitrile hydrochloride] was tested, and the activity at 1.25 µM was 150 to 200%. For `CCOc1ccc(CCN2CC[C@H](N)C2)cc1C#N` [Compound 85, (S)-5-(2-(3-aminopyrrolidin-1-yl)ethyl)-2-ethoxybenzonitrile hydrochloride], the activity at 1.25 µM was 150 to 200%.
